Counter-ions that a name gives are not always drawn.
target: T1, MLKL (Homo sapiens, UniProt Q8NB16); assay: Measurement of binding affinity with MLKL receptor (competitive binding assay, Kd); parameters: made in house; host or cells: HEK 293 cell line (T7 phage in E. coli BL21-derived host is also described); conditions: not given
T1 sequence (Q8NB16 1-471): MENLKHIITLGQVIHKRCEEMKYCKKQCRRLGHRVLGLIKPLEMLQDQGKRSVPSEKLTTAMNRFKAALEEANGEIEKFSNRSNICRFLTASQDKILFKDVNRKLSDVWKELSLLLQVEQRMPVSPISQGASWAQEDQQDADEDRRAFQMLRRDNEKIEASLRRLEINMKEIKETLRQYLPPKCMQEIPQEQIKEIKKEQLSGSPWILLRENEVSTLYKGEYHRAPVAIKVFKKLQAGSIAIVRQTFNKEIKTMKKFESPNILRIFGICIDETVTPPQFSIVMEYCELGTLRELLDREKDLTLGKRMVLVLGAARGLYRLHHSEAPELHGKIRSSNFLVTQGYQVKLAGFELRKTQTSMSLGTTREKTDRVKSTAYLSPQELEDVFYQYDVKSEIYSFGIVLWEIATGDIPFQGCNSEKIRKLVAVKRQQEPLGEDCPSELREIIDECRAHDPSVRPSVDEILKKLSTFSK
Protocol: Measurement of Binding Affinity with MLKL Receptor (Competitive Binding Assay)
The binding affinity was evaluated by measuring the Kd value in the following method.
To prepare kinase-tagged T7 phage strains in an E. coli host derived from the BL21 strain, E. coli were grown to log-phase and infected with T7 phage and incubated with shaking at 32° C. until lysis. The lysates were centrifuged and filtered to remove cell debris. For kinase production, it was expressed in human embryonic kidney cell line (HEK 293 cell line), and subsequently tagged with DNA for qPCR detection.
The liganded beads were blocked with excess biotin and washed with blocking buffer (SeaBlock (Pierce), 1% BSA, 0.05% Tween 20, 1 mM DTT) to remove unbound ligand and to reduce non-specific binding. […] Test compounds were prepared as 111× stocks in 100% DMSO.
The compounds were then diluted directly into the assays such that the final concentration of DMSO was 0.9%. All reactions performed in polypropylene 384-well plate. Each was a final volume of 0.02 ml. […] The kinase concentration in the eluates was measured by qPCR.

Row | Compound | Kd [µM]
1 | Cc1cc(Nc2ncc(Cl)c(Nc3ccccc3S(=O)(=O)C(C)C)n2)c(OC(C)C)cc1C1CCNCC1 [Ceritinib (C2)] | > 10
2 | Nc1nccnc1C(=O)O[C@@H](C(=O)Nc1ccc(F)cc1)c1ccccc1 [TDH-001, (R)-2-((4-fluorophenyl)amino)-2-oxo-1-phenylethyl 3-aminopyrazine-2-carboxylate] | 0.094
3 | CC(C)(C)OC(=O)N1CC=C(c2cnc(N)c(C(=O)O[C@@H](C(=O)Nc3ccc(F)cc3)c3ccccc3)c2)CC1 [TDH-066, (R)-1′-(tert-butyl) 5-(2-((4-fluorophenyl)amino)-2-oxo-1-phenylethyl) 6-amino-3′,6′-dihydro-[3,4′-bipyridine]-1′,5(2′H)-dicarboxylate] | 0.65
4 | Nc1ncc(Br)nc1C(=O)N[C@H](C(=O)Nc1ccc(F)cc1)c1ccccc1 [TDH-067, (S)-3-amino-6-bromo-N-(2-((4-fluorophenyl)amino)-2-oxo-1-phenylethyl)pyrazine-2-carboxamide] | > 10
5 | Nc1ncc(C2=CCNCC2)nc1C(=O)O[C@@H](C(=O)Nc1ccc(F)cc1)c1ccccc1 [TDH-068, (R)-2-((4-fluorophenyl)amino)-2-oxo-1-phenylethyl 3-amino-6-(1,2,3,6-tetrahydropyridin-4-yl)pyrazine-2-carboxylate hydrochloride] | 0.38
6 | Nc1ncc(C2=CCNCC2)cc1C(=O)O[C@@H](C(=O)Nc1ccc(F)cc1)c1ccccc1 [TDH-070, (R)-2-((4-fluorophenyl)amino)-2-oxo-1-phenylethyl 6-amino-1′,2′,3′,6′-tetrahydro-[3,4′-bipyridine]-5-carboxylate hydrochloride] | 0.11
7 | Nc1ncc(C2=CCN(C(=O)CCCCCNC(=O)C3CN(c4cccc5c4C(=O)N(C4CCC(=O)NC4=O)C5=O)C3)CC2)cc1C(=O)O[C@@H](C(=O)Nc1ccc(F)cc1)c1ccccc1 (stereo partly drawn) [TDH-078, (R)-2-((4-fluorophenyl)amino)-2-oxo-1-phenylethyl 6-amino-1′-(6-(1-(2-(2,6-dioxopiperidin-3-yl)-1,3-dioxoisoindolin-4-yl)azetidine-3-carboxamido)hexanoyl)-1′,2′,3′,6′-tetrahydro-[3,4′-bipyridine]-5-carboxylate] | 0.09
8 | CC(C)(C)OC(=O)N1CC[C@H](n2cc(-c3cnc(N)c(C(=O)OC(C(=O)Nc4ccc(F)cc4)c4ccccc4)n3)cn2)C1 (stereo partly drawn) [TDH-227, 2-((4-fluorophenyl)amino)-2-oxo-1-phenylethyl 3-amino-6-(1-((S)-1-(tert-butoxycarbonyl)pyrrolidin-3-yl)-1H-pyrazol-4-yl)pyrazine-2-carboxylate] | 0.012

Further lines, results first:

Row | Kd [µM] | Compound
9 | 0.12 | Nc1ncc(C2=CCN(C(=O)CCCCCNC(=O)C3CCN(c4cccc5c4C(=O)N(C4CCC(=O)NC4=O)C5=O)CC3)CC2)cc1C(=O)O[C@@H](C(=O)Nc1ccc(F)cc1)c1ccccc1 (stereo partly drawn) [TDH-080, (R)-2-((4-fluorophenyl)amino)-2-oxo-1-phenylethyl 6-amino-1′-(6-(1-(2-(2,6-dioxopiperidin-3-yl)-1,3-dioxoisoindolin-4-yl)piperidine-4-carboxamido)hexanoyl)-1′,2′,3′,6′-tetrahydro-[3,4′-bipyridine]-5-carboxylate]
10 | 0.07 | Nc1ncc(C2=CCN(C(=O)COCCOCCNc3cccc4c3C(=O)N(C3CCC(=O)NC3=O)C4=O)CC2)cc1C(=O)O[C@@H](C(=O)Nc1ccc(F)cc1)c1ccccc1 (stereo partly drawn) [TDH-082, (R)-2-((4-fluorophenyl)amino)-2-oxo-1-phenylethyl 6-amino-1′-(2-(2-(2-((2-(2,6-dioxopiperidin-3-yl)-1,3-dioxoisoindolin-4-yl)amino)ethoxy)ethoxy)acetyl)-1′,2′,3′,6′-tetrahydro-[3,4′-bipyridine]-5-carboxylate]
11 | 0.084 | Nc1ncc(C2=CCN(C(=O)COCCOCCNc3ccc4c(c3)C(=O)N(C3CCC(=O)NC3=O)C4=O)CC2)cc1C(=O)O[C@@H](C(=O)Nc1ccc(F)cc1)c1ccccc1 (stereo partly drawn) [TDH-083, (R)-2-((4-fluorophenyl)amino)-2-oxo-1-phenylethyl 6-amino-1′-(2-(2-(2-((2-(2,6-dioxopiperidin-3-yl)-1,3-dioxoisoindolin-5-yl)amino)ethoxy)ethoxy)acetyl)-1′,2′,3′,6′-tetrahydro-[3,4′-bipyridine]-5-carboxylate]
12 | 0.038 | Nc1ncc(C2=CCN(C(=O)COCCOCCNC(=O)C3CN(c4ccc5c(c4)C(=O)N(C4CCC(=O)NC4=O)C5=O)C3)CC2)cc1C(=O)O[C@@H](C(=O)Nc1ccc(F)cc1)c1ccccc1 (stereo partly drawn) [TDH-087, (R)-2-((4-fluorophenyl)amino)-2-oxo-1-phenylethyl 6-amino-1′-(2-(2-(2-(1-(2-(2,6-dioxopiperidin-3-yl)-1,3-dioxoisoindolin-5-yl)azetidine-3-carboxamido)ethoxy)ethoxy)acetyl)-1′,2′,3′,6′-tetrahydro-[3,4′-bipyridine]-5-carboxylate]
13 | 0.056 | Nc1ncc(C2=CCN(C(=O)COCCOCCNC(=O)C3CCN(c4ccc5c(c4)C(=O)N(C4CCC(=O)NC4=O)C5=O)CC3)CC2)cc1C(=O)O[C@@H](C(=O)Nc1ccc(F)cc1)c1ccccc1 (stereo partly drawn) [TDH-089, (R)-2-((4-fluorophenyl)amino)-2-oxo-1-phenylethyl 6-amino-1′-(2-(2-(2-(1-(2-(2,6-dioxopiperidin-3-yl)-1,3-dioxoisoindolin-5-yl)piperidine-4-carboxamido)ethoxy)ethoxy)acetyl)-1′,2′,3′,6′-tetrahydro-[3,4′-bipyridine]-5-carboxylate]
14 | 0.026 | Nc1ncc(-c2cnn(C3CCN(CCCCCCCCCCNc4cccc5c4C(=O)N(C4CCC(=O)NC4=O)C5=O)CC3)c2)nc1C(=O)O[C@@H](C(=O)Nc1ccc(F)cc1)c1ccccc1 (stereo partly drawn) [TDH-095, (R)-2-((4-fluorophenyl)amino)-2-oxo-1-phenylethyl 3-amino-6-(1-(1-(10-((2-(2,6-dioxopiperidin-3-yl)-1,3-dioxoisoindolin-4-yl)amino)decyl)piperidin-4-yl)-1H-pyrazol-4-yl)pyrazine-2-carboxylate]
15 | 0.00073 | CC(=O)N1CCC(n2cc(-c3cnc(N)c(C(=O)O[C@@H](C(=O)Nc4ccc(F)cc4)c4ccccc4)n3)cn2)CC1 [TDH-097, (R)-2-((4-fluorophenyl)amino)-2-oxo-1-phenylethyl 6-(1-(1-acetylpiperidin-4-yl)-1H-pyrazol-4-yl)-3-aminopyrazine-2-carboxylate]
16 | 0.0079 | Nc1ncc(-c2cnn(C3CCN(CCCCCCNc4cccc5c4C(=O)N(C4CCC(=O)NC4=O)C5=O)CC3)c2)nc1C(=O)O[C@@H](C(=O)Nc1ccc(F)cc1)c1ccccc1 (stereo partly drawn) [TDH-119, (R)-2-((4-fluorophenyl)amino)-2-oxo-1-phenylethyl 3-amino-6-(1-(1-(6-((2-(2,6-dioxopiperidin-3-yl)-1,3-dioxoisoindolin-4-yl)amino)hexyl)piperidin-4-yl)-1H-pyrazol-4-yl)pyrazine-2-carboxylate]
17 | 0.002 | CCN1CCN(c2ccc(-c3cnc(N)c(C(=O)O[C@@H](C(=O)Nc4ccc(F)cc4)c4ccccc4)n3)cn2)CC1 [TDH-183, (R)-2-((4-fluorophenyl)amino)-2-oxo-1-phenylethyl 3-amino-6-(6-(4-ethylpiperazin-1-yl)pyridin-3-yl)pyrazine-2-carboxylate]
18 | 0.0012 | CC(=O)N1CC[C@H](n2cc(-c3cnc(N)c(C(=O)OC(C(=O)Nc4ccc(F)cc4)c4ccccc4)n3)cn2)C1 (stereo partly drawn) [TDH-228, 2-((4-fluorophenyl)amino)-2-oxo-1-phenylethyl 6-(1-((S)-1-acetylpyrrolidin-3-yl)-1H-pyrazol-4-yl)-3-aminopyrazine-2-carboxylate]

tested on: FADD−/− Jurkat cells; assay: Necroptosis inhibition assay, TNF-α-induced necroptosis (CellTiter-Glo 2.0); format: cell-based, human; conditions: compound 1 μM; TNF-α 15 ng/mL
Protocol: Necroptosis Inhibition Assay
Necroptosis inhibition was evaluated by the following method.
80 μL of FADD gene-defective human T lymphocyte cells (FADD−/− Jurkat cells) were equally distributed into each well at 5.0×10^5 cells/mL in a white 96-well plate with a transparent bottom. 20 μL of the medium containing test compound was treated in each well so that the final concentration of the compound was 0.1, 1, and 10 μM, and reacted at room temperature for 30 minutes. After the 30-minute reaction was over, TNF (tumor necrosis factor)-α was treated in the corresponding well so that the final concentration of TNF-α was 15 ng/mL in order to induce necroptosis. It was cultured in a 5% CO2, 37° C. incubator for 20 to 24 hours.
After incubation, the 96-well plate was left at room temperature for 30 minutes. After 30 minutes, Promega's CellTiter-Glo 2.0 reagent was diluted 1:3 with PBS and 100 μL of the diluted solution was added to each well to confirm cell viability by measuring the amount of ATP. After the treatment, the plate was shielded from light and incubated at room temperature for 2 minutes with orbital shaking, and then left at room temperature for 10 minutes without shaking. After measuring the luminescence at 0.5 seconds per well using a plate scanner, the cytotoxicity and necroptosis inhibition rate for the compound were calculated using the measured values.

Row | Compound | Necroptosis inhibition assay (Rescue %) 1 μM [%]
19 | Nc1nccnc1C(=O)N[C@@H](C(=O)Nc1ccc(F)cc1)c1ccccc1 [TDH-106, (R)-3-amino-N-(2-((4-fluorophenyl)amino)-2-oxo-1-phenylethyl)pyrazine-2-carboxamide] | 13.76

same assay, conditions: compound 10 μM; TNF-α 15 ng/mL

Row | Compound | Necroptosis inhibition assay (Rescue %) 10 μM [%]
20 | Nc1nccnc1C(=O)N[C@@H](C(=O)Nc1ccc(F)cc1)c1ccccc1 [TDH-106, (R)-3-amino-N-(2-((4-fluorophenyl)amino)-2-oxo-1-phenylethyl)pyrazine-2-carboxamide] | 34.33
